Results reported in patent publication US9302999B2, “Substituted triazoles as herbicides” (E. I. DU PONT DE NEMOURS AND COMPANY, priority 2012, dated 2016).

What was measured:
Format in all cases: in vivo
[1] = test system: barnyardgrass (Echinochloa crus-galli); assay: Test A pre-/postemergence: barnyardgrass; details: for Barnyardgrass plant response rating: visual rating on 0 to 100 scale (0 no effect, 100 complete control), approximately ten days
Outline: (§1)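 Compounds, formulated with surfactant in non-phytotoxic solvent, were applied as a directed soil spray preemergence and as postemergence sprays to 2–10 cm, one- to two-leaf seedlings grown in loam soil blended with sand; visual injury, 0–100, assessed ~10 days post-treatment against untreated controls.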

[2] = test system: morningglory (Ipomoea spp.); assay: Test A pre-/postemergence: morningglory; details: for Morningglory plant response rating: visual rating on 0 to 100 scale (0 no effect, 100 complete control), approximately ten days
Outline: as §1

[3] = test system: wheat (Triticum aestivum); assay: Test A pre-/postemergence: wheat; details: for Wheat plant response rating: visual rating on 0 to 100 scale (0 no effect, 100 complete control), approximately ten days
Outline: as §1

corn (Zea mays) = assay: Test A pre-/postemergence: corn; details: for Corn plant response rating: visual rating on 0 to 100 scale (0 no effect, 100 complete control), approximately ten days
Outline: as §1

[4] = test system: blackgrass (Alopecurus myosuroides); assay: Test C pre-/postemergence: blackgrass
Outline: (§2)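 Visual injury scored 0–100 (100 = complete control) against untreated controls after 13–15 greenhouse days. Surfactant-containing solvent formulations applied either to soil after sowing (loam/sand) or over 1- to 4-leaf plants, 2–18 cm tall.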

[5] = test system: ryegrass, Italian (Italian ryegrass, Lolium multiflorum); assay: Test C pre-/postemergence: ryegrass, Italian
Outline: as §2

[6] = test system: large crabgrass (Digitaria sanguinalis); assay: Test C pre-/postemergence: large crabgrass
Outline: as §2

[7] = test system: johnsongrass (Sorghum halepense); assay: Test C pre-/postemergence: johnsongrass
Outline: as §2

[8] = test system: nutsedge, yellow (yellow nutsedge, Cyperus esculentus); assay: Test C pre-/postemergence: nutsedge, yellow
Outline: as §2

[9] = test system: pigweed (Amaranthus retroflexus); assay: Test C pre-/postemergence: pigweed
Outline: as §2

soybean (Glycine max) = assay: Test C pre-/postemergence: soybean
Outline: as §2

[10] = Postemergence, 125 g ai/ha, 0 to 100 scale, 0 is no effect, 100 is complete control
[11] = Preemergence, 125 g ai/ha, 0 to 100 scale where 0 is no effect and 100 is complete control
[12] = Preemergence, 500 g ai/ha, 0 to 100 scale (0 no effect, 100 complete control)
[13] = Postemergence, 31 g ai/ha, scale 0 to 100 (0 no effect, 100 complete control)
[14] = Postemergence, 62 g ai/ha, scale 0 to 100 (0 no effect, 100 complete control)
[15] = Postemergence, 125 g ai/ha, scale 0 to 100, 0 no effect, 100 complete control
[16] = Postemergence, 250 g ai/ha, scale 0 to 100
[17] = Preemergence, 31 g ai/ha, scale of 0 to 100, 0 is no effect, 100 is complete control
[18] = Preemergence, 62 g ai/ha, scale of 0 to 100, 0 is no effect, 100 is complete control
[19] = Preemergence, 125 g ai/ha, scale 0 to 100, 0 no effect, 100 complete control
[20] = Preemergence, 250 g ai/ha, scale 0 to 100, 0 no effect, 100 complete control

## CCc1nn(-c2ccc(C(F)(F)F)cc2)nc1Cc1ccnc(C(F)(F)F)c1 [Compound 155]
[1]; [10]
  Plant response rating, Barnyardgrass: 90
[1]; Postemergence, 500 g ai/ha
  Barnyardgrass plant response rating: 90
[1]; [11]
  Plant response rating, Barnyardgrass: 100
[1]; [12]
  Plant response rating, Barnyardgrass: 100
[2]; [10]
  Plant response rating, Morningglory: 90
[2]; Postemergence, 500 g ai/ha
  Morningglory plant response rating: 100
[2]; [11]
  Plant response rating, Morningglory: 80
[2]; [12]
  Plant response rating, Morningglory: 90
[3]; [10]
  Plant response rating, Wheat: 40
[3]; Postemergence, 500 g ai/ha
  Wheat plant response rating: 80
[3]; [11]
  Plant response rating, Wheat: 10
[3]; [12]
  Plant response rating, Wheat: 70
Corn (Zea mays); [10]
  Plant response rating, Corn: 40
Corn (Zea mays); Postemergence, 500 g ai/ha
  Corn plant response rating: 70
Corn (Zea mays); [11]
  Plant response rating, Corn: 60
Corn (Zea mays); [12]
  Plant response rating, Corn: 80
[4]; [13]
  Plant response rating, Blackgrass: 40
[4]; [14]
  Plant response rating, Blackgrass: 70
[4]; [15]
  Plant response rating, Blackgrass: 85
[4]; [16]
  Plant response rating, Blackgrass: 90
[4]; [17]
  Plant response rating, Blackgrass: 90
[4]; [18]
  Plant response rating, Blackgrass: 90
[4]; [19]
  Plant response rating, Blackgrass: 90
[4]; [20]
  Plant response rating, Blackgrass: 90
[5]; [13]
  Plant response rating, Ryegrass, Italian: 35
[5]; [14]
  Plant response rating, Ryegrass, Italian: 45
[5]; [15]
  Plant response rating, Ryegrass, Italian: 65
[5]; [16]
  Plant response rating, Ryegrass, Italian: 70
[5]; [17]
  Plant response rating, Ryegrass, Italian: 35
[5]; [18]
  Plant response rating, Ryegrass, Italian: 85
[5]; [19]
  Plant response rating, Ryegrass, Italian: 85
[5]; [20]
  Plant response rating, Ryegrass, Italian: 90
[6]; [13]
  Plant response rating, Crabgrass, Large: 20
[6]; [14]
  Plant response rating, Crabgrass, Large: 45
[6]; [15]
  Plant response rating, Crabgrass, Large: 75
[6]; [16]
  Plant response rating, Crabgrass, Large: 85
[6]; [17]
  Plant response rating, Crabgrass, Large: 100
[6]; [18]
  Plant response rating, Crabgrass, Large: 100
[6]; [19]
  Plant response rating, Crabgrass, Large: 100
[6]; [20]
  Plant response rating, Crabgrass, Large: 100
[7]; [13]
  Plant response rating, Johnsongrass: 20
[7]; [14]
  Plant response rating, Johnsongrass: 80
[7]; [15]
  Plant response rating, Johnsongrass: 98
[7]; [16]
  Plant response rating, Johnsongrass: 98
[7]; [17]
  Plant response rating, Johnsongrass: 80
[7]; [18]
  Plant response rating, Johnsongrass: 90
[7]; [19]
  Plant response rating, Johnsongrass: 90
[7]; [20]
  Plant response rating, Johnsongrass: 95
[8]; [13]
  Plant response rating, Nutsedge, Yellow: 5
[8]; [14]
  Plant response rating, Nutsedge, Yellow: 10
[8]; [15]
  Plant response rating, Nutsedge, Yellow: 10
[8]; [16]
  Plant response rating, Nutsedge, Yellow: 20
[8]; [17]
  Plant response rating, Nutsedge, Yellow: 0
[9]; [13]
  Plant response rating, Pigweed: 90
[9]; [14]
  Plant response rating, Pigweed: 90
[9]; [15]
  Plant response rating, Pigweed: 98
[9]; [16]
  Plant response rating, Pigweed: 100
[9]; [17]
  Plant response rating, Pigweed: 100
[9]; [18]
  Plant response rating, Pigweed: 100
[9]; [19]
  Plant response rating, Pigweed: 100
[9]; [20]
  Plant response rating, Pigweed: 100
Soybean (Glycine max); [13]
  Plant response rating, Soybean: 50
Soybean (Glycine max); [14]
  Plant response rating, Soybean: 75
Soybean (Glycine max); [15]
  Plant response rating, Soybean: 80
Soybean (Glycine max); [16]
  Plant response rating, Soybean: 80
Soybean (Glycine max); [17]
  Plant response rating, Soybean: 0
Soybean (Glycine max); [18]
  Plant response rating, Soybean: 35
Soybean (Glycine max); [19]
  Plant response rating, Soybean: 35
Soybean (Glycine max); [20]
  Plant response rating, Soybean: 40

## Cc1nn(-c2ccc(F)c(C(F)(F)F)c2)nc1Cc1ccnc(C(F)(F)F)c1 [Compound 156]
[1]; [10]
  Plant response rating, Barnyardgrass: 90
[1]; Postemergence, 500 g ai/ha
  Barnyardgrass plant response rating: 90
[1]; [11]
  Plant response rating, Barnyardgrass: 100
[1]; [12]
  Plant response rating, Barnyardgrass: 100
[2]; [10]
  Plant response rating, Morningglory: 90
[2]; Postemergence, 500 g ai/ha
  Morningglory plant response rating: 90
[2]; [11]
  Plant response rating, Morningglory: 80
[2]; [12]
  Plant response rating, Morningglory: 90
[3]; [10]
  Plant response rating, Wheat: 40
[3]; Postemergence, 500 g ai/ha
  Wheat plant response rating: 60
[3]; [11]
  Plant response rating, Wheat: 20
[3]; [12]
  Plant response rating, Wheat: 80
Corn (Zea mays); [10]
  Plant response rating, Corn: 40
Corn (Zea mays); Postemergence, 500 g ai/ha
  Corn plant response rating: 70
Corn (Zea mays); [11]
  Plant response rating, Corn: 40
Corn (Zea mays); [12]
  Plant response rating, Corn: 70
[4]; [13]
  Plant response rating, Blackgrass: 50
[4]; [14]
  Plant response rating, Blackgrass: 60
[4]; [15]
  Plant response rating, Blackgrass: 75
[4]; [16]
  Plant response rating, Blackgrass: 85
[4]; [17]
  Plant response rating, Blackgrass: 85
[4]; [18]
  Plant response rating, Blackgrass: 90
[4]; [19]
  Plant response rating, Blackgrass: 90
[4]; [20]
  Plant response rating, Blackgrass: 90
[5]; [13]
  Plant response rating, Ryegrass, Italian: 15
[5]; [14]
  Plant response rating, Ryegrass, Italian: 35
[5]; [15]
  Plant response rating, Ryegrass, Italian: 35
[5]; [16]
  Plant response rating, Ryegrass, Italian: 70
[5]; [17]
  Plant response rating, Ryegrass, Italian: 45
[5]; [18]
  Plant response rating, Ryegrass, Italian: 80
[5]; [19]
  Plant response rating, Ryegrass, Italian: 90
[5]; [20]
  Plant response rating, Ryegrass, Italian: 90
[6]; [13]
  Plant response rating, Crabgrass, Large: 10
[6]; [14]
  Plant response rating, Crabgrass, Large: 30
[6]; [15]
  Plant response rating, Crabgrass, Large: 40
[6]; [16]
  Plant response rating, Crabgrass, Large: 70
[6]; [17]
  Plant response rating, Crabgrass, Large: 90
[6]; [18]
  Plant response rating, Crabgrass, Large: 90
[6]; [19]
  Plant response rating, Crabgrass, Large: 98
[6]; [20]
  Plant response rating, Crabgrass, Large: 100
[7]; [13]
  Plant response rating, Johnsongrass: 45
[7]; [14]
  Plant response rating, Johnsongrass: 50
[7]; [15]
  Plant response rating, Johnsongrass: 65
[7]; [16]
  Plant response rating, Johnsongrass: 85
[7]; [17]
  Plant response rating, Johnsongrass: 75
[7]; [18]
  Plant response rating, Johnsongrass: 90
[7]; [19]
  Plant response rating, Johnsongrass: 90
[7]; [20]
  Plant response rating, Johnsongrass: 95
[8]; [13]
  Plant response rating, Nutsedge, Yellow: 5
[8]; [14]
  Plant response rating, Nutsedge, Yellow: 10
[8]; [15]
  Plant response rating, Nutsedge, Yellow: 10
[8]; [16]
  Plant response rating, Nutsedge, Yellow: 10
[8]; [17]
  Plant response rating, Nutsedge, Yellow: 0
[8]; [18]
  Plant response rating, Nutsedge, Yellow: 0
[8]; [19]
  Plant response rating, Nutsedge, Yellow: 0
[8]; [20]
  Plant response rating, Nutsedge, Yellow: 0
[9]; [13]
  Plant response rating, Pigweed: 75
[9]; [14]
  Plant response rating, Pigweed: 90
[9]; [15]
  Plant response rating, Pigweed: 95
[9]; [16]
  Plant response rating, Pigweed: 100
[9]; [17]
  Plant response rating, Pigweed: 100
[9]; [18]
  Plant response rating, Pigweed: 100
[9]; [19]
  Plant response rating, Pigweed: 100
[9]; [20]
  Plant response rating, Pigweed: 100
Soybean (Glycine max); [13]
  Plant response rating, Soybean: 55
Soybean (Glycine max); [14]
  Plant response rating, Soybean: 80
Soybean (Glycine max); [15]
  Plant response rating, Soybean: 95
Soybean (Glycine max); [16]
  Plant response rating, Soybean: 95
Soybean (Glycine max); [17]
  Plant response rating, Soybean: 5
Soybean (Glycine max); [18]
  Plant response rating, Soybean: 10
Soybean (Glycine max); [19]
  Plant response rating, Soybean: 25
Soybean (Glycine max); [20]
  Plant response rating, Soybean: 25
